Measurements: ChEMBL document CHEMBL1921798, “Discovery of a potent, selective, and orally available class I phosphatidylinositol 3-kinase (PI3K)/mammalian target of rapamycin (mTOR) kinase inhibitor (GDC-0980) for the treatment of cancer” (J Med Chem, 2011)
In brackets after ≈: the same amount, converted by molar mass.

Key:
in vivo [1] = conditions: Sprague-Dawley, rat, po, 1 mg/kg
in vivo [2] = conditions: Sprague-Dawley, rat, plasma, iv, 1 mg/kg
physchem [3] = conditions: buffer, pH 6.5
Description: Thermodynamic solubility of the compound at pH 6.5

[4] = molecular target: Phosphatidylinositol 4,5-bisphosphate 3-kinase catalytic subunit gamma isoform (Homo sapiens, UniProt P48736)
Phosphatidylinositol 4,5-bisphosphate 3-kinase catalytic subunit gamma isoform, sequence (P48736 whole entry, canonical isoform): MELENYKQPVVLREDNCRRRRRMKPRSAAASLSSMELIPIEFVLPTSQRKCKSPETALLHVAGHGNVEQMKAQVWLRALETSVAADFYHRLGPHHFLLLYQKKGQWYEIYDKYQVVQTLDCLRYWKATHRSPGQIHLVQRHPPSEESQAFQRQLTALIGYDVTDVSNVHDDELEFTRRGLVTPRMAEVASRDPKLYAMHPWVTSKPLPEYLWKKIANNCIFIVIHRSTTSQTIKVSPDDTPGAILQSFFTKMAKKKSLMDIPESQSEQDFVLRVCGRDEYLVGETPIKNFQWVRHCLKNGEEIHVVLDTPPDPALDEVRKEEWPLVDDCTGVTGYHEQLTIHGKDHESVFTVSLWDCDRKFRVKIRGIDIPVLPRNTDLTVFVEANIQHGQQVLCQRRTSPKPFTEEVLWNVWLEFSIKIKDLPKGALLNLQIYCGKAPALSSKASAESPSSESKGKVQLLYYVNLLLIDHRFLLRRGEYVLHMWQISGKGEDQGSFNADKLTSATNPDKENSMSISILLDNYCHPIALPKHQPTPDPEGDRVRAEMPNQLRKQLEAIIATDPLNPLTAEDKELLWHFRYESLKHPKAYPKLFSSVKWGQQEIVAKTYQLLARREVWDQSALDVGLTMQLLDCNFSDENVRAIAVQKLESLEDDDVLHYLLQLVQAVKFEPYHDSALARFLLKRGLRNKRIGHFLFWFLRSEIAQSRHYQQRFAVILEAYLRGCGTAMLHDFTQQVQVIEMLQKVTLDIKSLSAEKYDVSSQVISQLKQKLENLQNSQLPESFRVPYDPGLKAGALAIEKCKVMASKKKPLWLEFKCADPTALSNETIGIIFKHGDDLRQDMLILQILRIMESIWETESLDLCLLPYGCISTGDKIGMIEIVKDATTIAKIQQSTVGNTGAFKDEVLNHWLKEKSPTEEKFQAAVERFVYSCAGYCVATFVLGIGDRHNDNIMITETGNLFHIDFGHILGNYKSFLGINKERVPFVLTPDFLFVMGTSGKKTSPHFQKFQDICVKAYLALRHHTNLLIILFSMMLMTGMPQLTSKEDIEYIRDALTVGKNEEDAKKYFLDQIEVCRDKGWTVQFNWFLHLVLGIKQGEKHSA

[5] = molecular target: Phosphatidylinositol 4,5-bisphosphate 3-kinase catalytic subunit beta isoform (Homo sapiens, UniProt P42338)
Phosphatidylinositol 4,5-bisphosphate 3-kinase catalytic subunit beta isoform, sequence (P42338 whole entry, canonical isoform): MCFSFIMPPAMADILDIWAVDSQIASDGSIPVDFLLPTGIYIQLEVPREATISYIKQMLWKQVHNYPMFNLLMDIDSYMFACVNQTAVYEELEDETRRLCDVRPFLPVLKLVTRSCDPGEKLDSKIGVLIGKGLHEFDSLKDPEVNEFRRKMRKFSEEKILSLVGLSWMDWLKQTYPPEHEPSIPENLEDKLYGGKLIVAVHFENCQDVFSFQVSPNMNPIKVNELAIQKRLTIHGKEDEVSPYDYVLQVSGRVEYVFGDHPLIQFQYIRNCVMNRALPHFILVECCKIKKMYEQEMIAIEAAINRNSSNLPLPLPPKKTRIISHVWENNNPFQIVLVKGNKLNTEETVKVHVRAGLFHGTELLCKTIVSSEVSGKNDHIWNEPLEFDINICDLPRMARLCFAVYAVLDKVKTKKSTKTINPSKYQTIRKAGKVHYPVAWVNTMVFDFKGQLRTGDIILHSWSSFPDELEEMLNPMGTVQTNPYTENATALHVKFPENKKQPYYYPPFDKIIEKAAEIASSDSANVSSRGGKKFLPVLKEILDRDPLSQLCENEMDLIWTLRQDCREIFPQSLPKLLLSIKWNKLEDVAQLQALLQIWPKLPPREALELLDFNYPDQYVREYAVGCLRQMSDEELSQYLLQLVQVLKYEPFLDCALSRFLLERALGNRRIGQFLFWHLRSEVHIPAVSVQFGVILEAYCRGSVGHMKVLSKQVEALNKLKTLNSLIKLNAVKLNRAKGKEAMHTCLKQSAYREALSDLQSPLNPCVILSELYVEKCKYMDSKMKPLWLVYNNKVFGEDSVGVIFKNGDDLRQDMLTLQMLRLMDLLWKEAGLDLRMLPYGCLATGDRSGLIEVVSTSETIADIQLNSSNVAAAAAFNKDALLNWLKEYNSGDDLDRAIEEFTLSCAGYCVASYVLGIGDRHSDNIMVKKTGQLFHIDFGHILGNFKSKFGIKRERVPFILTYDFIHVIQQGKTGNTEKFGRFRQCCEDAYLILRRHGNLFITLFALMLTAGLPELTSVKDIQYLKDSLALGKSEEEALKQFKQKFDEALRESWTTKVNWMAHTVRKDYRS
Description: Inhibition of PI3K subunit p110beta assessed as formation of phosphatidylinositide-3-phosphate product formation after 30 mins by fluorescence polarization assay

[6] = molecular target: Serine/threonine-protein kinase mTOR (Homo sapiens, UniProt P42345)
Description: Inhibition of human recombinant mTOR expressed in insect cells assessed as phosphorylation of recombinant (GFP)-4-EBP1 measured after 30 mins by fluorescence polarization assay

[7] = molecular target: T1, Phosphatidylinositol 4,5-bisphosphate 3-kinase catalytic subunit delta isoform (Homo sapiens, UniProt O00329)
T1 sequence (O00329 whole entry): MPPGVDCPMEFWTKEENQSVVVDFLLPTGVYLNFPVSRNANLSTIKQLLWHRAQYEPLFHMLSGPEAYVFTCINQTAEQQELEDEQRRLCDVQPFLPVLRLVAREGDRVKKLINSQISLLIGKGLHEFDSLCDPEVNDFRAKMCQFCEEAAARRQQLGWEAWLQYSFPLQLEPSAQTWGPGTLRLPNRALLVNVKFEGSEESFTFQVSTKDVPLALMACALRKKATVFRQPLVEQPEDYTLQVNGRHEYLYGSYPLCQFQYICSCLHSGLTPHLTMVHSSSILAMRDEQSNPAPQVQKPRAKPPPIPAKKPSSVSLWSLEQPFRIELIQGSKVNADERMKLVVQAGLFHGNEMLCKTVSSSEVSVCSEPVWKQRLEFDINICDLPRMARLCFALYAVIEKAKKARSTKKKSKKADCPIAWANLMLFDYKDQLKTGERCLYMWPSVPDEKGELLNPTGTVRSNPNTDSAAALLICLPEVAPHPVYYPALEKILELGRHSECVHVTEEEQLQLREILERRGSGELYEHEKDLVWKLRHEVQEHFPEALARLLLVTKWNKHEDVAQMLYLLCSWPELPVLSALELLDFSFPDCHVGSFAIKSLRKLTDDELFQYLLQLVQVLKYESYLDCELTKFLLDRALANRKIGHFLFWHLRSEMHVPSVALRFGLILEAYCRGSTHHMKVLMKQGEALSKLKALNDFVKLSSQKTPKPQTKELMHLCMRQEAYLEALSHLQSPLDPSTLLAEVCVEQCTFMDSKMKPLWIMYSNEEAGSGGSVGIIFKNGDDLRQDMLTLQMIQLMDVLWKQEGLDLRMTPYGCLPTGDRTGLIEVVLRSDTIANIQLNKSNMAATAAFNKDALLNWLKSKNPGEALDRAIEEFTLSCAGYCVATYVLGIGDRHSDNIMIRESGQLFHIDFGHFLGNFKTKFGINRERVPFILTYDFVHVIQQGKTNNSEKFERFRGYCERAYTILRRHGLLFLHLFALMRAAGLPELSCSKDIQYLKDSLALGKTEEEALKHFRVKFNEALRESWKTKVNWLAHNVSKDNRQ

in vitro = conditions: human, plasma
Description: Plasma protein binding in human

in vivo [8] = conditions: beagle, dog, plasma, iv, 1 mg/kg
physchem [9] = conditions: octanol/water
Description: Lipophilicity, log D of the compound

[10] = molecular target: Phosphatidylinositol 4,5-bisphosphate 3-kinase catalytic subunit alpha isoform (Homo sapiens, UniProt P42336)
Phosphatidylinositol 4,5-bisphosphate 3-kinase catalytic subunit alpha isoform, sequence (P42336 whole entry, canonical isoform): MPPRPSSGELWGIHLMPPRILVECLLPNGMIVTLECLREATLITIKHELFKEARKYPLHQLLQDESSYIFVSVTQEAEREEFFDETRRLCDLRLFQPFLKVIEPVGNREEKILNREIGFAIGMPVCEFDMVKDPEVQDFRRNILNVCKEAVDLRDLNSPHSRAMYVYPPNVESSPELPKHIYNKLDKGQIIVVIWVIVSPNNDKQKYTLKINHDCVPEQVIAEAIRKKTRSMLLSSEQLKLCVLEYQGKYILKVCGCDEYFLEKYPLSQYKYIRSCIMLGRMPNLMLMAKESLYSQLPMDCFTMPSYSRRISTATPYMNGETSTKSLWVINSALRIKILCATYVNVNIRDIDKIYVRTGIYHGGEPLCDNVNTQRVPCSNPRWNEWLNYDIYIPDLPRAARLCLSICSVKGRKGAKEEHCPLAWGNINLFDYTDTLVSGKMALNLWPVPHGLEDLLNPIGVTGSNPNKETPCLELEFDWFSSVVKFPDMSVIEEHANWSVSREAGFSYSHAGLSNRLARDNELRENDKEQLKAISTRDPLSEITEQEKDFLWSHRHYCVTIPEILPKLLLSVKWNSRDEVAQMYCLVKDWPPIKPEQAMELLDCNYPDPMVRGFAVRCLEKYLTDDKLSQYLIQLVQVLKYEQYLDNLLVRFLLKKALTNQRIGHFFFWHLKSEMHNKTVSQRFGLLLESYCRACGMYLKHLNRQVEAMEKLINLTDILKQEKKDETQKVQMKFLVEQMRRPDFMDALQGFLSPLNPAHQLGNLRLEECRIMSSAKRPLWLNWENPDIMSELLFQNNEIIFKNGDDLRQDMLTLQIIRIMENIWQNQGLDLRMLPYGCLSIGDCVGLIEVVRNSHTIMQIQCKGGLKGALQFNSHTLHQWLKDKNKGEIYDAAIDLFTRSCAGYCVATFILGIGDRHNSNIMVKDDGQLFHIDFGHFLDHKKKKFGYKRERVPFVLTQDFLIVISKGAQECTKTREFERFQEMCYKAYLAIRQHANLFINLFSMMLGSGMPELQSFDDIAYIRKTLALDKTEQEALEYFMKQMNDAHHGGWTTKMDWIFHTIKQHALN
Description: Inhibition of PI3K subunit p110alpha assessed as formation of phosphatidylinositide-3-phosphate product formation after 30 mins by fluorescence polarization assay

Row | Compound | clearance (in vivo [2]) [L/h/kg] | solubility thermodynamic (physchem [3]) [mg/mL] | IC50 [4] [µM] | IC50 [5] [µM] | IC50 [7] [µM] | further results
1 | Cc1c(CN2CCN(C(=O)C(C)(C)O)CC2)sc2c(N3CCOCC3)nc(-c3cnc(N)nc3)nc12.O=C(O)C(F)(F)F | 1.44 | – | – | – | – | bioavailability (in vivo [1]): 71%
2 | Cc1c(CN2CCN(C(=O)C(C)(C)N)CC2)sc2c(N3CCOCC3)nc(-c3cnc(N)nc3)nc12 | – | 1 (≈ 1950 µM) | 0.02 | 0.044 | 0.0015 | Ki [6]: 0.014 µM
3 | Cc1c(CN2CCN(S(C)(=O)=O)CC2)sc2c(N3CCOCC3)nc(-c3cnc(N)nc3)nc12 | – | 0.009 (≈ 17.8 µM) | – | – | – | fraction unbound (in vitro): 0.23
4 | Cc1c(CN2CCN(C(=O)[C@H](C)N)CC2)sc2c(N3CCOCC3)nc(-c3cnc(N)nc3)nc12 | – | – | 0.037 | 0.029 | 0.0024 | Ki [6]: 0.0063 µM
5 | Cc1c(CN2CCN(C(=O)C(C)(C)O)CC2)sc2c(N3CCOCC3)nc(-c3cnc(N)nc3)nc12 | – | 0.6 (≈ 1170 µM) | 0.025 | 0.045 | 0.005 | Ki [6]: 0.014 µM
6 | Cc1c(CN2CCN(C(=O)C(C)(C)N)CC2)sc2c(N3CCOCC3)nc(-c3cnc(N)nc3)nc12.O=C(O)C(F)(F)F | 5.04 | – | – | – | – | bioavailability (in vivo [1]): 6%
7 | CS(=O)(=O)N1CCN(Cc2cc3nc(-c4cnc(N)nc4)nc(N4CCOCC4)c3s2)CC1.Cl | – | – | – | – | – | clearance (in vivo [8]): 1.32 L/h/kg
8 | CS(=O)(=O)N1CCN(Cc2cc3nc(-c4cnc(N)nc4)nc(N4CCOCC4)c3s2)CC1 | – | 0.024 (≈ 48.9 µM) | – | – | – | logD (physchem [9]): 1.3; fraction unbound (in vitro): 0.49
9 | Cc1c(CN2CCN(C(=O)CN)CC2)sc2c(N3CCOCC3)nc(-c3cnc(N)nc3)nc12.O=C(O)C(F)(F)F | 8.4 | – | – | – | – | bioavailability (in vivo [1]): 0%
10 | Cc1c(CN2CCN(C(=O)CN)CC2)sc2c(N3CCOCC3)nc(-c3cnc(N)nc3)nc12 | – | 0.69 (≈ 1430 µM) | 0.017 | 0.011 | 0.0043 | IC50 [10]: 0.0007 µM; Ki [6]: 0.012 µM
11 | Cc1c(CN2CCN(C(=O)CO)CC2)sc2c(N3CCOCC3)nc(-c3cnc(N)nc3)nc12 | – | – | 0.01 | 0.019 | 0.0056 | Ki [10]: 0.0028 µM
12 | CS(=O)(=O)N1CCN(Cc2cc3nc(-c4cnc(N)nc4)nc(N4CCOCC4)c3s2)CC1.O=C(O)C(F)(F)F | 1.44 | – | – | – | – | –
13 | Cc1c(CN2CCN(S(C)(=O)=O)CC2)sc2c(N3CCOCC3)nc(-c3cnc(N)nc3)nc12.Cl | – | – | – | – | – | clearance (in vivo [8]): 0.3 L/h/kg
14 | Cc1c(CN2CCN(S(C)(=O)=O)CC2)sc2c(N3CCOCC3)nc(-c3cnc(N)nc3)nc12.O=C(O)C(F)(F)F | 0.78 | – | – | – | – | –
